Measured values reported in ChEMBL document CHEMBL1201862, “PubChem BioAssay data set” (2004).
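Briefly, cells in 96-well plates were exposed to five compound concentrations for 48 h, and endpoints were estimated by linear interpolation. Here, GI50 denotes the concentration required for 50% inhibition of growth.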 Activity calls are given as the source filed them. Cut-off read from the data, not from the text of the source: active = GI50 up to about 1.1 µM and inactive = higher.

What was measured:
Assay in all cases: NCI anticancer screen, dose series, 48 h
SK-MEL-28 = test system: SK-MEL-28
MCF7 = test system: MCF7
PC-3 = test system: PC-3
SF-539 = test system: SF-539
NCI/ADR-RES = test system: NCI/ADR-RES
UACC-62 = test system: UACC-62
NCI-H23 = test system: NCI-H23
T47D = test system: T47D
A549 = test system: A549
HOP-92 = test system: HOP-92
SN12C = test system: SN12C
MOLT-4 = test system: MOLT-4
ACHN = test system: ACHN
M14 = test system: M14
TK-10 = test system: TK-10
SK-MEL-5 = test system: SK-MEL-5
NCI-H226 = test system: NCI-H226
OVCAR-8 = test system: OVCAR-8
EKVX = test system: EKVX
SF-295 = test system: SF-295
OVCAR-5 = test system: OVCAR-5
SW-620 = test system: SW-620
KM12 = test system: KM12
HCT-15 = test system: HCT-15
HL-60 = test system: HL-60
DU-145 = test system: DU-145
UO-31 = test system: UO-31
IGROV-1 = test system: IGROV-1
NCI-H460 = test system: NCI-H460
HT-29 = test system: HT-29
U-251 = test system: U-251
786-0 = test system: 786-0
K562 = test system: K562
SF-268 = test system: SF-268
Malme-3M = test system: Malme-3M
MDA-N = test system: MDA-N
SNB-19 = test system: SNB-19
HOP-62 = test system: HOP-62
SR = test system: SR
RPMI-8226 = test system: RPMI-8226
HCC 2998 = test system: HCC 2998
COLO 205 = test system: COLO 205
CCRF-CEM = test system: CCRF-CEM
Hs-578T = test system: Hs-578T
NCI-H522 = test system: NCI-H522

Measured: GI50

CCOC1CCC2C(CCC(/C=C/c3ccc(O)c4ncccc34)N2C)C1 (stereo not given)
40.8 µM: HCT-15
inactive: SK-MEL-28 29.6 µM | MCF7 4.23 µM | PC-3 8.75 µM | SF-539 3.67 µM | NCI/ADR-RES > 100 µM | UACC-62 8.89 µM | NCI-H23 10.3 µM | T47D 9.86 µM | A549 25.1 µM | HOP-92 11.7 µM | SN12C 4.78 µM | MOLT-4 3.72 µM | ACHN 32.7 µM | M14 15.4 µM | TK-10 33.2 µM | SK-MEL-5 19.7 µM | NCI-H226 37.4 µM | OVCAR-8 3.53 µM | EKVX 4.98 µM | SF-295 24 µM | OVCAR-5 33.2 µM | SW-620 7.59 µM | KM12 17.4 µM | HL-60 3.84 µM | DU-145 10.3 µM | UO-31 26.1 µM | IGROV-1 11.4 µM | NCI-H460 7.89 µM | HT-29 7.03 µM | U-251 15.4 µM | 786-0 6.44 µM | K562 4.6 µM | SF-268 6.24 µM | Malme-3M 31.6 µM | MDA-N 38.5 µM | SNB-19 16 µM | HOP-62 8.71 µM | SR 3.21 µM | RPMI-8226 25.4 µM | HCC 2998 24.2 µM | COLO 205 3.56 µM | CCRF-CEM 4.65 µM | Hs-578T 15.2 µM | NCI-H522 1.99 µM
